Measured values from patent US7214675B2, “Urea substituted imidazoquinoline ethers” (3M Innovative Properties Company, priority 2000, dated 2007).

Tests used:
[1] = tested on: interferon (α) induction in human peripheral blood mononuclear cells (PBMC); assay: Cytokine induction in human cells: interferon (α) secreted by PBMC, ELISA; assay type: cell-based; settings: lowest concentration found to induce interferon, incubated 18 to 24 hours at 37° C.
From the text: (§1) An in vitro human blood cell system is used to assess cytokine induction. Activity is based on the measurement of interferon and tumor necrosis factor (α) (IFN and TNF, respectively) secreted into culture media as described by Testerman et. al. In “Cytokine Induction by the Immunomodulators Imiquimod and S-27609”, Journal of Leukocyte Biology, 58, 365–372 (September, 1995).
(§2) Whole blood from healthy human donors is collected by venipuncture into EDTA vacutainer tubes. Peripheral blood mononuclear cells (PBMC) are separated from whole blood by density gradient centrifugation using Histopaque®-1077. Blood is diluted 1:1 with Dulbecco's Phosphate Buffered Saline (DPBS) or Hank's Balanced Salts Solution (HBSS). The PBMC layer is collected and washed twice with DPBS or HBSS and resuspended at 4×10^6 cells/mL in RPMI complete. The PBMC suspension is added to 48 well flat bottom sterile tissue culture plates (Costar, Cambridge, Mass. or Becton Dickinson Labware, Lincoln Park, N.J.) containing an equal volume of RPMI complete media containing test compound.
(§3) The compounds are solubilized in dimethyl sulfoxide (DMSO). The DMSO concentration should not exceed a final concentration of 1% for addition to the culture wells. The compounds are generally tested at concentrations ranging from 30–0.014 μM.
(§4) The solution of test compound is added at 60 μM to the first well containing RPMI complete and serial 3 fold dilutions are made in the wells. The PBMC suspension is then added to the wells in an equal volume, bringing the test compound concentrations to the desired range (30–0.014 μM). The final concentration of PBMC suspension is 2×10^6 cells/mL. The plates are covered with sterile plastic lids, mixed gently and then incubated for 18 to 24 hours at 37° C. in a 5% carbon dioxide atmosphere.
(§5) Following incubation the plates are centrifuged for 10 minutes at 1000 rpm (˜200×g) at 4° C. The cell-free culture supernatant is removed with a sterile polypropylene pipet and transferred to sterile polypropylene tubes. Samples are maintained at −30 to −70° C. until analysis. The samples are analyzed for interferon (α) by ELISA and for tumor necrosis factor (α) by ELISA or IGEN Assay
Interferon (α) concentration is determined by ELISA using a Human Multi-Species kit from PBL Biomedical Laboratories, New Brunswick, N.J. Results are expressed in pg/mL.
(§6) The table below lists the lowest concentration found to induce interferon and the lowest concentration found to induce tumor necrosis factor for each compound.

[2] = tested on: tumor necrosis factor (α) induction in human peripheral blood mononuclear cells (PBMC); assay: Cytokine induction in human cells: tumor necrosis factor (α) secreted by PBMC, ELISA or IGEN assay; assay type: cell-based; settings: lowest concentration found to induce tumor necrosis factor, incubated 18 to 24 hours at 37° C.
From the text: as §1, §2, §3, §4, §5
Tumor necrosis factor (α) (TNF) concentration is determined using ELISA kits available from Biosource International, Camarillo, Calif. Alternately, the TNF concentration can be determined by Origen® M-Series Immunoassay and read on an IGEN M-8 analyzer from IGEN International, Gaithersburg, Md. The immunoassay uses a human TNF capture and detection antibody pair from Biosource International, Camarillo, Calif. Results are expressed in pg/mL.
as §6

| SMILES | melting point [°C] | minimal effective concentration [1] [µM] | minimal effective concentration [2] [µM] |
| --- | --- | --- | --- |
| CCc1nc2c(N)nc3ccccc3c2n1CCOCCNC(=O)NC1CCCCC1 [Example 51, N-{2-[2-(4-amino-2-ethyl-1H-imidazo[4,5-c]quinolin-1-yl)ethoxy]ethyl}-N′-cyclohexylurea] | 198 to 200 |  |  |
| CCc1nc2c(N)nc3ccccc3c2n1CCOCCNC(=O)N1CCOCC1 [Example 52, N-{2-[2-(4-amino-2-ethyl-1H-imidazo[4,5-c]quinolin-1-yl)ethoxy]ethyl}morpholine-4-carboxamide] | 182 to 184 |  |  |
| Cc1nc2c(N)nc3ccccc3c2n1CCOCCNC(=O)NC1CCCCC1 [Example 49, N-{2-[2-(4-amino-2-methyl-1H-imidazo[4,5-c]quinolin-1-yl)ethoxy]ethyl}-N′-cyclohexylurea] | 207 to 209 |  |  |
| COCCc1nc2c(N)nc3c(c2n1CCOCCN(C)C(=O)Nc1ccccc1)CCCC3 [Example 4, N-(2-{2-[4-amino-2-(2-methoxyethyl)-6,7,8,9-tetrahydro-1H-imidazo[4,5-c]quinolin-1-yl]ethoxy}ethyl)-N-methyl-N′-phenylurea] | 167.7 to 170 |  |  |
| COCCc1nc2c(N)nc3ccccc3c2n1CCOCCN(C)C(=O)Nc1ccccc1 [Example 3, N-(2-{2-[4-amino-2-(2-methoxyethyl)-1H-imidazo[4,5-c]quinolin-1-yl]ethoxy}ethyl)-N-methyl-N′-phenylurea] | 184.8 to 185.8 | 0.01 | 0.37 |
| COCCc1nc2c(N)nc3c(c2n1CCOCCNC(=O)Nc1ccccc1)CCCC3 [Example 2, N-(2-{2-[4-amino-2-(2-methoxyethyl)-6,7,8,9-tetrahydro-1H-imidazo[4,5-c]quinolin-1-yl]ethoxy}ethyl)-N′-phenylurea] | 180 to 182 |  |  |
| COCCc1nc2c(N)nc3ccccc3c2n1CCOCCN(C)C(=O)N1CCOCC1 [Example 6, N-(2-{2-[4-amino-2-(2-methoxyethyl)-1H-imidazo[4,5-c]quinolin-1-yl]ethoxy}ethyl)-N-methylmorpholine-4-carboxamide] | 121.8 to 122.3 |  |  |
| CCOCc1nc2c(N)nc3ccccc3c2n1CCOCCNC(=O)NC1CCCCC1 [Example 54, N-(2-{2-[4-amino-2-(ethoxymethyl)-1H-imidazo[4,5-c]quinolin-1-yl]ethoxy}ethyl)-N′cyclohexylurea] | 161 to 164 |  |  |
